Assay results taken from patent US12662489B2 (Sitryx Therapeutics Limited, priority 2023, dated 2026).

Columns and labels:
[1] = target: T1, MTHFD1 recombinant human enzyme (Homo sapiens, UniProt P11586); test: MTHFD1 inhibition assay (NAD(P)H-Glo luminescence); conditions: MTHFD1 IC50, recombinant human enzyme 200 nM, NADP, band
T1 sequence (P11586 2-291 limits assumed): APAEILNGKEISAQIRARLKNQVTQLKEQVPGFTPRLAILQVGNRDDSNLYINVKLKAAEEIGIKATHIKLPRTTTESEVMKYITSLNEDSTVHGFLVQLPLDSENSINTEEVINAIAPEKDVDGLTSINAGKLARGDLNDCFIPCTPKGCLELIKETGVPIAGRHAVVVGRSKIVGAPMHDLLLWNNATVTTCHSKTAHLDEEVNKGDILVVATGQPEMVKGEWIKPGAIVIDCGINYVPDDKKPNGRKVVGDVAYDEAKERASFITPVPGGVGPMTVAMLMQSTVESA

[2] = target: T2, MTHFD2 recombinant human enzyme (Homo sapiens, UniProt P13995); test: MTHFD2 inhibition assay (NAD(P)H-Glo luminescence); conditions: for MTHFD1/MTHFD2 IC50 ratio: selectivity of MTHFD2 inhibition over MTHFD1, band
T2 sequence (P13995 36-350): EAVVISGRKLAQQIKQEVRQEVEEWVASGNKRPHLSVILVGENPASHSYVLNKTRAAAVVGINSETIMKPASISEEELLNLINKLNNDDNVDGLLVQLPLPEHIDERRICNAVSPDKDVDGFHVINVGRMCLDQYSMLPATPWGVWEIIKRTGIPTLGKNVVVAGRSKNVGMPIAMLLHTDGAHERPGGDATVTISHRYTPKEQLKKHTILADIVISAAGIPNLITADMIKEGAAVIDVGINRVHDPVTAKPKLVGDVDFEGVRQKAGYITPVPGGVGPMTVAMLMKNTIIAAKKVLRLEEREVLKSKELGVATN

Compound | IC50 [1] | IC50 [2] | MTHFD1/MTHFD2 IC50 ratio [2]
COC[C@H]1CN(c2ccc3c4c(c(=O)oc3c2C)CN(C(=O)c2cc(OC3CCCC3)c(C(=O)NS(=O)(=O)N3CCCC3)c(C(F)(F)F)c2)CC4)CCN1C [Example 107, (R)-2-(cyclopentyloxy)-4-(8-(3-(methoxymethyl)-4-methylpiperazin-1-yl)-7-methyl-5-oxo-1,3,4,5-tetrahydro-2H-chromeno[3,4-c]pyridine-3-carbonyl)-N-(pyrrolidin-1-ylsulfonyl)-6-(trifluoromethyl)benzamide] | 1000 to 5000 nM | 100 to 1000 nM | G (^ 3 to 9.0)
COC[C@H]1CN(c2cc(C)c3c4c(c(=O)oc3c2C)CN(C(=O)c2ccc(C(=O)NS(=O)(=O)N(C)C)c(N3CCCC3)c2F)CC4)CCN1C [Example 70, (R)-N-(N,N-dimethylsulfamoyl)-3-fluoro-4-(8-(3-(methoxymethyl)-4-methylpiperazin-1-yl)-7,10-dimethyl-5-oxo-1,3,4,5-tetrahydro-2H-chromeno[3,4-c]pyridine-3-carbonyl)-2-(pyrrolidin-1-yl)benzamide] | 10 to 100 nM | 1 to 10 nM | G (^ 3 to 9.0)
COC[C@H]1CN(c2ccc3c4c(c(=O)oc3c2C)CN(C(=O)c2c(C)cc(C(=O)NS(=O)(=O)N3CCCC3)c(OC3CCC3)c2F)CC4)CCN1C [Example 140, (R)-2-cyclobutoxy-3-fluoro-4-(8-(3-(methoxymethyl)-4-methylpiperazin-1-yl)-7-methyl-5-oxo-1,3,4,5-tetrahydro-2H-chromeno[3,4-c]pyridine-3-carbonyl)-5-methyl-N-(pyrrolidin-1-ylsulfonyl) benzamide] | 100 to 1000 nM | 100 to 1000 nM | F (<3)
COC[C@H]1CN(c2ccc3c4c(c(=O)oc3c2C)CN(C(=O)c2ccc(C(=O)NS(=O)(=O)N3C5CCC3CC5)c(OC3CCC3)c2F)CC4)CCN1C [Example 176, (R)—N-((7-azabicyclo[2.2.1]heptan-7-yl)sulfonyl)-2-cyclobutoxy-3-fluoro-4-(8-(3-(methoxymethyl)-4-methylpiperazin-1-yl)-7-methyl-5-oxo-1,3,4,5-tetrahydro-2H-chromeno[3,4-c]pyridine-3-carbonyl)benzamide] | 10 to 100 nM | 10 to 100 nM | F (<3)
CCOc1cc(C(=O)N2CCc3c(c(=O)oc4c(C)c(N5CCN(C)[C@@H](COC)C5)cc(Cl)c34)C2)c(F)cc1C(=O)NS(=O)(=O)N1CC2(CCC2)C1 [Example 300, (R)-N-((2-azaspiro[3.3]heptan-2-yl)sulfonyl)-4-(10-chloro-8-(3-(methoxymethyl)-4-methylpiperazin-1-yl)-7-methyl-5-oxo-1,3,4,5-tetrahydro-2H-chromeno[3,4-c]pyridine-3-carbonyl)-2-ethoxy-5-fluorobenzamide] | 100 to 1000 nM | 10 to 100 nM | 
COC[C@H]1CN(c2ccc3c4c(c(=O)oc3c2C)CN(C(=O)c2cc(F)c(C(=O)NS(=O)(=O)N(C)C)c(N3CC5CC5C3)c2)CC4)CCN1C (stereo partly drawn) [Example 27, 2-(3-azabicyclo[3.1.0]hexan-3-yl)-N-(N,N-dimethylsulfamoyl)-6-fluoro-4-(8-((R)-3-(methoxymethyl)-4-methylpiperazin-1-yl)-7-methyl-5-oxo-1,3,4,5-tetrahydro-2H-chromeno[3,4-c]pyridine-3-carbonyl)benzamide] | 1 to 10 nM | 1 to 10 nM | F (<3)
COC[C@H]1CN(c2ccc3c4c(c(=O)oc3c2C)CN(C(=O)c2ccc(C(=O)NS(=O)(=O)C3(C)CC3)c(OC3CCCC3)c2)CC4)CCN1C [Example 8, (R)-2-(cyclopentyloxy)-4-(8-(3-(methoxymethyl)-4-methylpiperazin-1-yl)-7-methyl-5-oxo-1,3,4,5-tetrahydro-2H-chromeno[3,4-c]pyridine-3-carbonyl)-N-((1-methylcyclopropyl)sulfonyl)benzamide] | 10 to 100 nM | 10 to 100 nM | F (<3)
COC[C@H]1CN(c2ccc3c4c(c(=O)oc3c2C)CN(C(=O)c2ccc(C(=O)NS(=O)(=O)N(C)C(C)C)c(N3CCCC3)c2)CC4)CCN1C [Example 31, (R)-N-(N-isopropyl-N-methylsulfamoyl)-4-(8-(3-(methoxymethyl)-4-methylpiperazin-1-yl)-7-methyl-5-oxo-1,3,4,5-tetrahydro-2H-chromeno[3,4-c]pyridine-3-carbonyl)-2-(pyrrolidin-1-yl)benzamide] | 10 to 100 nM | 1 to 10 nM | G (^ 3 to 9.0)
COC[C@H]1CN(c2ccc3c4c(c(=O)oc3c2)CN(C(=O)c2ccc(C(=O)NS(=O)(=O)N3CCCC3)c(OC3CCC3)c2F)CC4)CCN1C [Example 182, (R)-2-cyclobutoxy-3-fluoro-4-(8-(3-(methoxymethyl)-4-methylpiperazin-1-yl)-5-oxo-1,3,4,5-tetrahydro-2H-chromeno[3,4-c]pyridine-3-carbonyl)-N-(pyrrolidin-1-ylsulfonyl)benzamide] | 1000 to 5000 nM | 100 to 1000 nM | G (^ 3 to 9.0)
CCOc1c(C(=O)NS(=O)(=O)N2CC3CCC(C3)C2)ccc(C(=O)N2CCc3c(c(=O)oc4c(C)c(N5CCN(C)[C@@H](COC)C5)ccc34)C2)c1F [Example 237] | 10 to 100 nM | 10 to 100 nM | F (<3)
COC[C@H]1CN(c2ccc3c4c(c(=O)oc3c2C)CN(C(=O)c2cc(OC3CCC3)c(C(=O)NS(=O)(=O)N3CCCC3)c(C(F)(F)F)c2)CC4)CCN1C [Example 133, (R)-2-cyclobutoxy-4-(8-(3-(methoxymethyl)-4-methylpiperazin-1-yl)-7-methyl-5-oxo-1,3,4,5-tetrahydro-2H-chromeno[3,4-c]pyridine-3-carbonyl)-N-(pyrrolidin-1-ylsulfonyl)-6-(trifluoromethyl)benzamide] | 100 to 1000 nM | 100 to 1000 nM | G (^ 3 to 9.0)

Continued, values first:

IC50 [1] | IC50 [2] | MTHFD1/MTHFD2 IC50 ratio [2] | Compound
10 to 100 nM | 10 to 100 nM | F (<3) | COC[C@H]1CN(c2cc(C)c3c4c(c(=O)oc3c2C)CN(C(=O)c2ccc(C(=O)NS(=O)(=O)N3CCCC3)c(N3CC5CC5C3)c2)CC4)CCN1C (stereo partly drawn) [Example 126, 2-(3-azabicyclo[3.1.0]hexan-3-yl)-4-(8-((R)-3-(methoxymethyl)-4-methylpiperazin-1-yl)-7,10-dimethyl-5-oxo-1,3,4,5-tetrahydro-2H-chromeno[3,4-c]pyridine-3-carbonyl)-N-(pyrrolidin-1-ylsulfonyl)benzamide]
100 to 1000 nM | 10 to 100 nM | F (<3) | COC[C@H]1CN(c2cc(C)c3c4c(c(=O)oc3c2C)CN(C(=O)c2ccc(C(=O)NS(=O)(=O)N(C)C)c(N3CCCC5(CC5)C3)c2)CC4)CCN1C [Example 120, (R)-N-(N,N-dimethylsulfamoyl)-4-(8-(3-(methoxymethyl)-4-methylpiperazin-1-yl)-7,10-dimethyl-5-oxo-1,3,4,5-tetrahydro-2H-chromeno[3,4-c]pyridine-3-carbonyl)-2-(5-azaspiro[2.5]octan-5-yl)benzamide]
100 to 1000 nM | 10 to 100 nM | H (>9.0 to 30) | COC[C@H]1CN(c2cc(Cl)c3c4c(c(=O)oc3c2C)CN(C(=O)c2ccc(C(=O)NS(=O)(=O)N3CC5CC5C3)c(OC)c2)CC4)CCN1C (stereo partly drawn) [Example 280, N-((3-azabicyclo[3.1.0]hexan-3-yl)sulfonyl)-4-(10-chloro-8-((R)-3-(methoxymethyl)-4-methylpiperazin-1-yl)-7-methyl-5-oxo-1,3,4,5-tetrahydro-2H-chromeno[3,4-c]pyridine-3-carbonyl)-2-methoxybenzamide]
10 to 100 nM | 1 to 10 nM | G (^ 3 to 9.0) | COC[C@H]1CN(c2cc(C)c3c4c(c(=O)oc3c2C)CN(C(=O)c2ccc(C(=O)NS(=O)(=O)N(C)C)c(N(C)C3CCC3)c2)CC4)CCN1C [Example 55, (R)-2-(cyclobutyl(methyl)amino)-N-(N,N-dimethylsulfamoyl)-4-(8-(3-(methoxymethyl)-4-methylpiperazin-1-yl)-7,10-dimethyl-5-oxo-1,3,4,5-tetrahydro-2H-chromeno[3,4-c]pyridine-3-carbonyl)benzamide]
10 to 100 nM | 10 to 100 nM | F (<3) | CCOc1c(C(=O)NS(=O)(=O)N2C[C@H]3CCC[C@H]3C2)ccc(C(=O)N2CCc3c(c(=O)oc4c(C)c(N5CCN(C)[C@@H](COC)C5)cc(C)c34)C2)c1F [Example 232]
100 to 1000 nM | 10 to 100 nM | J (>30) | COC[C@H]1CN(c2ccc3c4c(c(=O)oc3c2C)CN(C(=O)c2cc(Cl)c(C(=O)NS(=O)(=O)C3(C)CC3)c(N3CC5CC5C3)c2)CC4)CCN1C (stereo partly drawn) [Example 32, 2-(3-azabicyclo[3.1.0]hexan-3-yl)-6-chloro-4-(8-((R)-3-(methoxymethyl)-4-methylpiperazin-1-yl)-7-methyl-5-oxo-1,3,4,5-tetrahydro-2H-chromeno[3,4-c]pyridine-3-carbonyl)-N-((1-methylcyclopropyl)sulfonyl)benzamide]
